Results on 10 compounds are retold here after patent publication US20230144619A1, “SALT OF ARYLAMINOPURINE DERIVATIVE, PREPARATION METHOD THEREFOR AND USE THEREOF” (CSPC Zhongqi Pharmaceutical Technology (Shijiazhuang) Co., …, priority 2020, published 2023).

≈ marks a conversion by molar mass, not a printed value. A value given as a limit tells only on which side of the number the result lay.

Format in all cases: physicochemical
A short description of one data set: Hygroscopicity test. The note with it: 25±1° C., relative humidity 80%±2% (DVS, 80% RH). The method, then:
Detection instrument: XPE105DR
(1) A dry stoppered glass weighing bottle was taken, placed in a suitable constant-temperature desiccator at 25° C. 1° C. (with a saturated solution of ammonium chloride or ammonium sulfate in the lower part) or an artificial climate box (with the set temperature of 25° C.±1° C. and the relative humidity of 80%±2%) on the day before the test, and precisely weighed and recorded as the weight (m1).
(2) An appropriate amount of the test sample was taken and spread in the above-mentioned weighing bottle. The thickness of the test sample was generally about 1 mm, and the bottle was precisely weighed and recorded as the weight (m2).
(3) The stopper was removed to open the weighing bottle, and the opened weighing bottle and the stopper were placed under the above-mentioned constant temperature and humidity conditions for 24 hours.
(4) The opened weighing bottle was stoppered, precisely weighed, and recorded as the weight (m3).
Percentage increase in mass=(m3−m2)/(m2−m1)×100%
(5) The description of hygroscopicity characteristics and the definition for the weight gain due to hygroscopicity:
Deliquescence: Sufficient water was absorbed to form a liquid.
Very hygroscopic: the weight gain due to hygroscopicity was not less than 15%.
Hygroscopic: the weight gain due to hygroscopicity was less than 15% but not less than 2%.
Slightly hygroscopic: the weight gain due to hygroscopicity was less than 2% but not less than 0.2%.
Not or nearly not hygroscopic: the weight gain due to hygroscopicity was less than 0.2%.
Appropriate amounts of the salt samples obtained from Examples 1 and 3-17 were subjected to the hygroscopicity test at a temperature of 25±1° C. under a relative humidity of 80%±2%, and the results were as follows: […]

Data set [1] is described as follows: Solubility test (UV spectrophotometer, saturated solutions shaken 24 hours). The note with it: 25° C.; for Solubility, Water medium pH = 1.2: pH=1.2 hydrochloric acid solution; for Solubility, Water medium pH = 4.5: pH=4.5 phosphate buffer solution; for Solubility, Water medium pH = 6.8: pH=6.8 phosphate buffer solution; for Solubility, Water medium: water (purified water). On the procedure:
Detection instrument: Ultraviolet spectrophotometer/Evolution 300
The following solutions with pH=1.2, pH=4.5, and pH=6.8 and water were used as the solvent, and the solvent preparation process was as follows:
(1) pH=1.2 hydrochloric acid solution: To 7.65 mL of hydrochloric acid was added 1000 mL of water, and the mixture was shaken uniformly to obtain the target solution.
(2) pH=4.5 phosphate buffer solution: 6.8 g of potassium dihydrogen phosphate was taken and diluted with water to 1000 mL, and the mixture was shaken uniformly to obtain the target solution.
(2) pH=6.8 phosphate buffer solution: 6.8 g of potassium dihydrogen phosphate and 0.896 g of sodium hydroxide were taken and diluted with water to 1000 mL, and the mixture was shaken uniformly to obtain the target solution.
(4) Water: purified water
Test tubes with stopper were taken, and 10 mL of dissolution media at various pH values were precisely added to the test tubes respectively, and excessive stock drugs were added until supersaturated solutions were formed. The adding amounts were recorded. The solutions were shaken uniformly, sealed with stoppers, and shaken for 24 hours in a shaker. 2 mL of solutions were taken out at different time points respectively, and centrifuged. The resulting supernatants were taken, filtered, and the subsequent filtrates were taken for later use.
The above-mentioned saturated solutions in different solvents were taken, and solvents were added to dilute the solutions to certain volumes. The absorbances were measured at a wavelength of 287 nm.
Preparation of a solution of the reference substance: an appropriate amount of the compound represented by Formula 1 was taken as the reference substance, and precisely weighed. A solvent was added to dissolve and dilute the reference compound to produce a solution containing about 10 μg of the compound represented by Formula 1 per 1 mL. The absorbance was measured at a wavelength of 287 nm to calculate the solubility.
The salts obtained in Examples 1 and 3-17 and the compound represented by Formula 1 were subjected to the solubility test in media and the test results were shown in the following table: […]

A further data set can be described thus: DSC and TGA tests. The note with it: onset temperature. On the procedure: 6. Differential Scanning Calorimetry-Thermogravimetric Analysis (DSC-TGA)
Detection instrument: NETZSCH STA 449F3
Temperature range: 20° C.-350° C.;
Heating rate: 10.0 (K/min);
7. Differential Scanning Calorimetry (DSC)
Detection instrument: NETZSCH DSC 214 Polyma
Temperature range: 20° C.-250° C.;
Heating rate: 5.0 (K/min);
8. Thermogravimetric Analysis (TGA)
Detection instrument: METTLER and SDT Q600
The salts obtained in Examples 1 and 3-17 and the compound represented by Formula 1 were subjected to the DSC and TGA tests in media, and the test results were shown in the following table: […]

Data set [2] in a line: Accelerated stability test. The method, then: Appropriate amounts of the salt samples obtained from Examples 1 and 3-17 were placed at a temperature of 25±2° C. under 0%±5% RH in an open environment for 10 days and at a temperature of 40±2° C. under 75%±5% RH in an open environment for 10 days respectively to perform the accelerated tests, and the results were as follows: […]

[3] abbreviates: Placed at 25 ± 2° C. under 0% ± 5% RH in an open environment for 10 days.
The mark [4] stands for this setting: Placed at 40 ± 2° C. under 75% ± 5% RH in an open environment for 10 days.

For `CC(C)n1c(Nc2cccnc2)nc2cnc(Nc3ccc(N4CCN(C)CC4)cc3)nc21` [Example 3], in “Hygroscopicity test”, the Hygroscopicity entry is recorded as “Hygroscopic (the weight gain due to hygroscopicity was less than 15% but not less than 2%.)” and the “Weight gain due to hygroscopicity” value was found to be 5.86%. In addition, in data set [1], the “Solubility, Water medium pH = 1.2” value is given as 360.00 mg/mL; the “Solubility, Water medium pH = 4.5” value came out at 207.53 mg/mL; the “Solubility, Water medium pH = 6.8” value was 153.30 mg/mL; the “Solubility, Water medium” value is 212.73 mg/mL (≈ 480 mM). In the data set “DSC and TGA tests”, the “TGA: starting to lose the acid” value was ~120 °C (see FIG. 21) and the “TGA: starting to lose the water of crystallization” value (“TGA: starting to lose the water” for short) is “crystallization at about 40° C.;”.

As for `CC(C)n1c(Nc2cccnc2)nc2cnc(Nc3ccc(N4CCN(C)CC4)cc3)nc21` [Example 4], in “Hygroscopicity test”, the Hygroscopicity entry is reported as “Hygroscopic (the weight gain due to hygroscopicity was less than 15% but not less than 2%.)” and the “Weight gain due to hygroscopicity” value was 6.94%. Besides, in data set [1], the “Solubility, Water medium pH = 1.2” value is more than 1000 mg/mL; the “Solubility, Water medium pH = 4.5” value is more than 1000 mg/mL; the “Solubility, Water medium pH = 6.8” value is recorded as more than 1000 mg/mL; the “Solubility, Water medium” value was more than 1000 mg/mL. In the data set “DSC and TGA tests”, the “TGA: starting to lose the acid” value was ~220 °C (see FIG. 23) and the “TGA: starting to lose the water” value is on record as “crystallization at about 40° C.;”. Also, in data set [2] (setting [3]), the Appearance entry is “Liquid”. Moreover, the Appearance entry in data set [2] (setting [4]) is reported as “Liquid”.

In the case of `CC(C)n1c(Nc2cccnc2)nc2cnc(Nc3ccc(N4CCN(C)CC4)cc3)nc21` [Example 5], in the data set “Hygroscopicity test”, the Hygroscopicity entry was “Very hygroscopic (the weight gain due to hygroscopicity was not less than 15%.)” and the “Weight gain due to hygroscopicity” value amounted to 19.62%. Further, in data set [1], the “Solubility, Water medium pH = 1.2” value is reported as more than 1000 mg/mL; the “Solubility, Water medium pH = 4.5” value is recorded as more than 1000 mg/mL; the “Solubility, Water medium pH = 6.8” value is more than 1000 mg/mL; the “Solubility, Water medium” value is on record as more than 1000 mg/mL. Moreover, in “DSC and TGA tests”, the “TGA: starting to lose the acid” value is ~190 °C (see FIG. 25) and the “TGA: starting to lose the water” value is listed as “crystallization at about 40° C.;”. For the same compound, the Appearance entry in data set [2] (setting [3]) is recorded as “Liquid”. Further, in data set [2] (setting [4]), the Appearance entry is given as “Liquid”.

On to `CC(C)n1c(Nc2cccnc2)nc2cnc(Nc3ccc(N4CCN(C)CC4)cc3)nc21` [Example 6], for which, in “Hygroscopicity test”, the Hygroscopicity result is on record as “Slightly hygroscopic (the weight gain due to hygroscopicity was less than 2% but not less than 0.2%.)” and the “Weight gain due to hygroscopicity” value came out at 1.02%. Moreover, in data set [1], the “Solubility, Water medium pH = 1.2” value was 54.70 mg/mL; the “Solubility, Water medium pH = 4.5” value is recorded as 14.59 mg/mL; the “Solubility, Water medium pH = 6.8” value is listed as 12.05 mg/mL; the “Solubility, Water medium” value was determined as 9.68 mg/mL (≈ 21.8 mM). In the data set “DSC and TGA tests”, the “TGA: starting to lose the acid” value is ~170 °C (see FIG. 26) and the “TGA: starting to lose the water” value was “crystallization at about 40° C.;”. Moreover, the Appearance result in data set [2] (setting [3]) is “Yellow solid”. Besides, the Appearance result in data set [2] (setting [4]) is on record as “Yellow solid”.

For the compound `CC(C)n1c(Nc2cccnc2)nc2cnc(Nc3ccc(N4CCN(C)CC4)cc3)nc21` [Example 8], in the data set “Hygroscopicity test”, the Hygroscopicity result is on record as “Slightly hygroscopic (the weight gain due to hygroscopicity was less than 2% but not less than 0.2%.)” and the “Weight gain due to hygroscopicity” value was 1.43%. Also, in data set [1], the “Solubility, Water medium pH = 1.2” value is 36.41 mg/mL; the “Solubility, Water medium pH = 4.5” value is 14.36 mg/mL; the “Solubility, Water medium pH = 6.8” value was 10.46 mg/mL; the “Solubility, Water medium” value was 9.74 mg/mL (≈ 22 mM). Moreover, in the data set “DSC and TGA tests”, the “TGA: starting to lose the acid” value was ~180 °C (see FIG. 28) and the “TGA: starting to lose the water” value is listed as “crystallization at about 40° C.;”.

In the case of `CC(C)n1c(Nc2cccnc2)nc2cnc(Nc3ccc(N4CCN(C)CC4)cc3)nc21` [Example 9], in the data set “Hygroscopicity test”, the Hygroscopicity entry is given as “Slightly hygroscopic (the weight gain due to hygroscopicity was less than 2% but not less than 0.2%.)” and the “Weight gain due to hygroscopicity” value amounted to 1.43%. In data set [1], the “Solubility, Water medium pH = 1.2” value was determined as 44.51 mg/mL; the “Solubility, Water medium pH = 4.5” value was 15.17 mg/mL; the “Solubility, Water medium pH = 6.8” value worked out at 11.48 mg/mL; the “Solubility, Water medium” value is recorded as 10.50 mg/mL (≈ 23.7 mM). Further, in the data set “DSC and TGA tests”, the “TGA: starting to lose the acid” value was ~170 °C (see FIG. 29) and the “TGA: starting to lose the water” value was “crystallization at about 40° C.;”.

For `CC(C)n1c(Nc2cccnc2)nc2cnc(Nc3ccc(N4CCN(C)CC4)cc3)nc21` [Example 12], in “Hygroscopicity test”, the “Weight gain due to hygroscopicity” value was found to be 0.11%. Besides, in data set [1], the “Solubility, Water medium pH = 1.2” value came to 42.39 mg/mL; the “Solubility, Water medium pH = 4.5” value came out at 2.70 mg/mL; the “Solubility, Water medium pH = 6.8” value amounted to 0.14 mg/mL; the “Solubility, Water medium” value came out at 3.09 mg/mL (≈ 6.97 mM). Also, in the data set “DSC and TGA tests”, the “TGA: starting to lose the acid” value is ~140 °C (see FIG. 33) and the “TGA: starting to lose the water” value is on record as “crystallization at about 40° C.;”.

For `CC(C)n1c(Nc2cccnc2)nc2cnc(Nc3ccc(N4CCN(C)CC4)cc3)nc21` [Example 13], the “Weight gain due to hygroscopicity” value in “Hygroscopicity test” came out at 0.05%. Further, in data set [1], the “Solubility, Water medium pH = 1.2” value was found to be 59.71 mg/mL; the “Solubility, Water medium pH = 4.5” value amounted to 8.42 mg/mL; the “Solubility, Water medium pH = 6.8” value is on record as 1.12 mg/mL; the “Solubility, Water medium” value stood at 5.06 mg/mL (≈ 11.4 mM). In addition, in “DSC and TGA tests”, the “TGA: starting to lose the acid” value was ~140 °C (see FIG. 35) and the “TGA: starting to lose the water” value was “crystallization at about 40° C.;”.

For the compound `CC(C)n1c(Nc2cccnc2)nc2cnc(Nc3ccc(N4CCN(C)CC4)cc3)nc21` [Example 16], in the data set “Hygroscopicity test”, the Hygroscopicity entry is recorded as “Hygroscopic (the weight gain due to hygroscopicity was less than 15% but not less than 2%.)” and the “Weight gain due to hygroscopicity” value was 7.67%. In addition, in data set [1], the “Solubility, Water medium pH = 1.2” value was 129.50 mg/mL; the “Solubility, Water medium pH = 4.5” value stood at 90.03 mg/mL; the “Solubility, Water medium pH = 6.8” value worked out at 90.09 mg/mL; the “Solubility, Water medium” value was 76.59 mg/mL (≈ 173 mM). In the data set “DSC and TGA tests”, the “TGA: starting to lose the acid” value is ~240 °C (See FIG. 40) and the “TGA: starting to lose the water” value is on record as “crystallization at about 40° C.;”.

Consider `CC(C)n1c(Nc2cccnc2)nc2cnc(Nc3ccc(N4CCN(C)CC4)cc3)nc21` [Example 17], for which, in the data set “Hygroscopicity test”, the Hygroscopicity entry is “Slightly hygroscopic (the weight gain due to hygroscopicity was less than 2% but not less than 0.2%.)” and the “Weight gain due to hygroscopicity” value was 1.34%. Besides, in data set [1], the “Solubility, Water medium pH = 1.2” value is 33.29 mg/mL; the “Solubility, Water medium pH = 4.5” value worked out at 21.64 mg/mL; the “Solubility, Water medium pH = 6.8” value came to 31.39 mg/mL; the “Solubility, Water medium” value is listed as 16.51 mg/mL (≈ 37.2 mM). Further, in “DSC and TGA tests”, the “TGA: starting to lose the acid” value is ~210 °C (see FIG. 41) and the “TGA: starting to lose the water” value was “crystallization at about 40° C.;”.
